This assay has as its system T84 monolayers. An excerpt:
T84 cells are a human colonic epithelial cell line that differentiates and creates tight junctions. T84 cells are a model for colonic inflammation.

Where no end group is shown, it is not given here.

For GGVLVQPG (SEQ ID NO:1) [Larazotide], the “concentration dependence of the effect of protecting T84 monolayers from disruption by Streptococcus KS47” value (FIG. 3) is given as “concentration dependent”. Also, where the note is “T84 human colonic epithelial cell line, FIG. 1”, the “protection of T84 monolayers from disruption by Shigella” value is listed as “does not protect”.

The record behind these values is patent publication US20190358288A1, “COMPOSITIONS AND METHODS FOR TREATING OR PREVENTING ENVIRONMENTAL ENTEROPATHY” (INNOVATE BIOPHARMACEUTICALS, INC., priority 2017, published 2019).
